Experimental data taken from US20150252049A1, “MGLU2/3 ANTAGONISTS FOR THE TREATMENT OF AUTISTIC DISORDERS” (Hoffmann-La Roche Inc., priority 2012, published 2015).

Tested on: BTBR T+tf/J (BTBR) mice
Test: 3-Chambered Social Test (animal vs. object)
Assay type: in vivo, mouse
Details: male BTBR-T+/tfj mice, 3-10-30 mg/kg p.o. 3 hours before habituation; effect especially in the first 5 minutes at 10 mg/kg (FIG. 2/3)
Description: Deficits in social interactions and social approach, unusual patterns of ultrasonic vocalization, and high levels of repetitive self-grooming are included.^20
The 3-Chambered Social Test is used to assess autistic-like behaviors. Shortly after a period of habituation a mouse's sociability is determined by evaluating the amount of time the test mouse spends approaching a wire cage (holding cup) containing an unfamiliar mouse.
48 male mice BTBR-T+/tfj, 8-9 weeks old, were used in the experiments described herein in 4 groups n=12/group. Further, 6 male stimulus mice (unfamiliar BTBR T+tf/J mice) of similar age and weight were used.
Low light of 20 Lux was used. With the doorways into the two side chambers closed, the test mouse was placed in the middle chamber and allowed to explore the apparatus for 10 min. Thereafter, the doorways were opened and the test mouse was allowed to explore the entire test box for 10 min. The cages were empty. The sociability test was conducted immediately following the habituation phase.
While the test mouse was enclosed in the center compartment of the test box a stimulus mouse was enclosed in a wire cage (holding cup) in one side chamber. […] The amount of time spent and the number of entries into each chamber was measured, as was the time spent in a small perimeter around the cup holding the stimulus mouse. […]

With `CCC(=O)NS(=O)(=O)c1cccc(-c2cccc(-c3cc(-c4ccc(C(F)(F)F)cc4)cc(C)n3)n2)c1` [IIb] the “social preference (duration in the chamber, duration sniffing)” value was “increased social preference”.
